Results: patent US8088936B2, “Leukotriene B4 inhibitors” (Hoffman-La Roche Inc., priority 2009, dated 2012)

System: Human leukemia HL-60 cells endogenously expressing BLT1 and BLT2 receptors
Experiment: Ca2+ flux assay for LTB4 antagonist assay (HL-60 FLIPR)
Assay type: cell-based
Conditions: retinoic acid induced HL-60 cells, inhibition of LTB4-induced Ca2+ flux, 30 min preincubation; read-out: LTB4 antagonism (HL-60 FLIPR)
Protocol: Assay of Compounds for Inhibition of LTB4 Activity
Ca^2+Flux Assay for LTB4 Antagonist Assay
Human leukemia HL-60 cells endogenously expressing BLT1 and BLT2 receptors were cultured in RPMI-1640 medium supplemented with 20% fetal bovine serum, 2 mM glutamine, 100 U/ml penicillin and 100 ug/ml streptomycin.
Seventy two hours prior to experiment cells are counted using ViaCount reagent, centrifuged and resuspended at 2.0×10^5 cells/ml density with the complete growth media containing 1 μM Retinoic Acid (Sigma).
On a day of the experiment loading buffer (Calcium-3 Assay Kit, Molecular Devices) was prepared by dissolving the contents of one vial (Express Kit) into 500 ml Hank's Balanced Salt Solution containing 20 mM HEPES and 5 mM probenecid. Equal volume of the loading buffer was mixed with the replacement buffer (Hank's Balanced Salt Solution containing 20 mM HEPES, 0.05% BSA and 5 mM probenecid). Retinoic Acid induced HL-60 cells were counted using ViaCount reagent, centrifuged and resuspended at 2.0×10^6 cells/ml density with the loading buffer/replacement buffer, dispensed into 384 well black/clear microplates (Falcon) (25 μl/well) and placed in a 37° C./5% CO2 incubator for 1 hour.
During the incubation, test compounds were prepared at 6× the desired concentration in HBSS/20 mM HEPES/0.05% BSA as well as LTB4 (Biomol) was prepared at 2.2× concentration in HBSS/20 mM HEPES/0.5% BSA buffer.
After the incubation, both the cell and compound plates were brought to the FLIPR and 5 μl of the diluted compounds were transferred to the cell plates by the FLIPR. Plates were then incubated for 30 min at room temperature. After the ½ hour incubation, plates were returned to the FLIPR and 25 μl of 2.2×LTB4 was added to the cell plates. During the assay, fluorescence readings were taken simultaneously from all 384 wells of the cell plate every 1.5 seconds. Five readings were taken to establish a stable baseline, then 25 μl (LTB4) of sample was rapidly and simultaneously added to each well of the cell plate. The fluorescence was continuously monitored before, during and after sample addition for a total elapsed time of 100 seconds. Responses (increase in peak fluorescence) in each well following agonist addition was determined. The initial fluorescence reading from each well, prior to ligand stimulation, was used a zero baseline value for the data from that well. The responses are expressed as % inhibition of the neutral control (neural control: wells that received buffer plus DMSO but no test compound).

IC50 [nM] | Compound
62.5 | O=C(O)CCCOc1cccc(CCCCCCOc2cc(CO)cc(-c3ccsc3)c2)c1CCC(=O)O [Example 3, 4-{2-(2-Carboxy-ethyl)-3-[6-(3-hydroxymethyl-5-thiophen-3-yl-phenoxy)-hexyl]-phenoxy}-butyric acid]
5.98 | COCc1cc(OCCCCCCc2cccc(OCCCC(=O)O)c2CCC(=O)O)cc(-c2ccccc2F)c1 [Example 15, 4-{2-(2-Carboxy-ethyl)-3-[6-(2′-fluoro-5-methoxymethyl-biphenyl-3-yloxy)-hexyl]-phenoxy}-butyric acid]
14.8 | COCc1cc(OCCCCCCc2cccc(OCCCC(=O)O)c2CCC(=O)O)cc(-c2cc(F)cc(F)c2)c1 [Example 16, 4-{2-(2-Carboxy-ethyl)-3-[6-(3′,5′-difluoro-5-methoxymethyl-biphenyl-3-yloxy)-hexyl]-phenoxy}-butyric acid]
2.22 | CN(C)Cc1cc(OCCCCCCc2cccc(OCCCC(=O)O)c2CCC(=O)O)cc(-c2ccc(S(C)(=O)=O)cc2)c1 [Example 38, 4-{2-(2-Carboxy-ethyl)-3-[6-(5-dimethylaminomethyl-4′-methanesulfonyl-biphenyl-3-yloxy)-hexyl]-phenoxy}-butyric acid]
1.62 | COCc1cc(OCCCCCCc2cccc(OCCCC(=O)O)c2CCC(=O)O)cc(-c2ccc(C(F)(F)F)cc2)c1 [Example 17, 4-{2-(2-Carboxy-ethyl)-3-[6-(5-methoxymethyl-4′-trifluoromethyl-biphenyl-3-yloxy)-hexyl]-phenoxy}-butyric acid]
5.2 | CCOc1cc(OCCCCCCc2cccc(OCCCC(=O)O)c2CCC(=O)O)cc(-c2ccc(F)cc2)c1 [Example 48]
0.77 | O=C(O)CCCOc1cccc(CCCCCCOc2cc(C(=O)C3CCCC3)cc(-c3ccc4c(c3)OCO4)c2)c1CCC(=O)O [Example 73, 4-[3-[6-(3-Benzo[1,3]dioxol-5-yl-5-cyclopentanecarbonyl-phenoxy)-hexyl]-2-(2-carboxy-ethyl)-phenoxy]-butyric acid]
0.4 | CCC(=O)c1cc(OCCCCCCc2cccc(OCCCC(=O)O)c2CCC(=O)O)cc(-c2ccc3c(c2)OCO3)c1 [Example 71, 4-[3-[6-(3-Benzo[1,3]dioxol-5-yl-5-propionyl-phenoxy)-hexyl]-2-(2-carboxy-ethyl)-phenoxy]-butyric acid]
83.2 | CS(=O)(=O)c1ccc(-c2cc(CO)cc(OCCCCCCc3cccc(OCCCC(=O)O)c3CCC(=O)O)c2)cc1 [Example 7, 4-[2-(2-Carboxy-ethyl)-3-[6-(5-hydroxymethyl-4′-methanesulfonyl-biphenyl-3-yloxy)-hexyl]-phenoxy]-butyric acid]
34.2 | CCOc1cc(OCCCCCCc2cccc(OCCCC(=O)O)c2CCC(=O)O)cc(-c2ccc3[nH]ccc3c2)c1 [Example 54, 4-[2-(2-Carboxy-ethyl)-3-{6-[3-ethoxy-5-(1H-indol-5-yl)-phenoxy]-hexyl}-phenoxy]-butyric acid]
43.1 | O=C(O)CCCOc1cccc(CCCCCCOc2cc(CO)cc(-c3ccc(Cl)cc3)c2)c1CCC(=O)O [Example 5, 4-{2-(2-Carboxy-ethyl)-3-[6-(4′-chloro-5-hydroxymethyl-biphenyl-3-yloxy)-hexyl]-phenoxy}-butyric acid]
16 | CCOCc1cc(OCCCCCCc2cccc(OCCCC(=O)O)c2CCC(=O)O)cc(-c2ccc(S(C)(=O)=O)cc2)c1 [Example 29, 4-[2-(2-Carboxy-ethyl)-3-[6-(5-ethoxymethyl-4′-methanesulfonyl-biphenyl-3-yloxy)-hexyl]-phenoxy]-butyric acid]
32.5 | O=C(O)CCCOc1cccc(CCCCCCOc2cc(OCC3CCCC3)cc(-c3cccc(F)c3)c2)c1CCC(=O)O [Example 63, 4-[2-(2-Carboxy-ethyl)-3-[6-(5-cyclopentylmethoxy-3′-fluoro-biphenyl-3-yloxy)-hexyl]-phenoxy]-butyric acid]
1.26 | CCOc1cc(OCCCCCCc2cccc(OCCCC(=O)O)c2CCC(=O)O)cc(-c2ccccc2)c1 [Example 44, 4-[2-(2-Carboxy-ethyl)-3-[6-(5-ethoxy-biphenyl-3-yloxy)-hexyl]-phenoxy]-butyric acid]
11.9 | CCOCc1cc(OCCCCCCc2cccc(OCCCC(=O)O)c2CCC(=O)O)cc(-c2ccc(F)cc2)c1 [Example 26, 4-{2-(2-Carboxy-ethyl)-3-[6-(5-ethoxymethyl-4′-fluoro-biphenyl-3-yloxy)-hexyl]-phenoxy}-butyric acid]
2.07 | CC(=O)c1cc(OCCCCCCc2cccc(OCCCC(=O)O)c2CCC(=O)O)cc(-c2ccc3c(c2)OCCO3)c1 [Example 65]
3.1 | O=C(O)CCCOc1cccc(CCCCCCOc2cc(CO)cc(-c3ccc4c(c3)OCO4)c2)c1CCC(=O)O [Example 1, 4-[3-[6-(3-Benzo[1,3]dioxol-5-yl-5-hydroxymethyl-phenoxy)-hexyl]-2-(2-carboxy-ethyl)-phenoxy]-butyric acid]
1.2 | CCOc1cc(OCCCCCCc2cccc(OCCCC(=O)O)c2CCC(=O)O)cc(-c2ccc3c(c2)OC(F)(F)O3)c1 [Example 57, 4-(2-(2-Carboxy-ethyl)-3-{6-[3-(2,2-difluoro-benzo[1,3]dioxol-5-yl)-5-ethoxy-phenoxy]-hexyl}-phenoxy)-butyric acid]
1.47 | COCc1cc(OCCCCCCc2cccc(OCCCC(=O)O)c2CCC(=O)O)cc(-c2cccc(F)c2)c1 [Example 14, 4-{2-(2-Carboxy-ethyl)-3-[6-(3′-fluoro-5-methoxymethyl-biphenyl-3-yloxy)-hexyl]-phenoxy}-butyric acid]
70.8 | CN(C)Cc1cc(OCCCCCCc2cccc(OCCCC(=O)O)c2CCC(=O)O)cc(-c2cccc(S(C)(=O)=O)c2)c1 [Example 39, 4-{2-(2-Carboxy-ethyl)-3-[6-(5-dimethylaminomethyl-3′-methanesulfonyl-biphenyl-3-yloxy)-hexyl]-phenoxy}-butyric acid]
0.42 | CN(C)Cc1cc(OCCCCCCc2cccc(OCCCC(=O)O)c2CCC(=O)O)cc(-c2ccncc2)c1 [Example 40, 4-{2-(2-Carboxy-ethyl)-3-[6-(3-dimethylaminomethyl-5-pyridin-4-yl-phenoxy)-hexyl]-phenoxy}-butyric acid]
6.94 | CCOc1cc(OCCCCCCc2cccc(OCCCC(=O)O)c2CCC(=O)O)cc(-c2ccnc(Cl)c2)c1 [Example 52, 4-[2-(2-Carboxy-ethyl)-3-[6-[3-(2-chloro-pyridin-4-yl)-5-ethoxy-phenoxy]-hexyl]-phenoxy]-butyric acid]
7.98 | O=C(O)CCCOc1cccc(CCCCCCOc2cc(OCC3CCCC3)cc(-c3ccsc3)c2)c1CCC(=O)O [Example 62, 4-[2-(2-Carboxy-ethyl)-3-[6-(3-cyclopentylmethoxy-5-thiophen-3-yl-phenoxy)-hexyl]-phenoxy]-butyric acid]
0.1 | CN(C)Cc1cc(OCCCCCCc2cccc(OCCCC(=O)O)c2CCC(=O)O)cc(-c2ccccc2)c1 [Example 32, 4-{2-(2-Carboxy-ethyl)-3-[6-(5-dimethylaminomethyl-biphenyl-3-yloxy)-hexyl]-phenoxy}-butyric acid]
29.6 | O=C(O)CCCOc1cccc(CCCCCCOc2cc(CO)cc(-c3ccc(F)cc3)c2)c1CCC(=O)O [Example 4, 4-{2-(2-Carboxy-ethyl)-3-[6-(4′-fluoro-5-hydroxymethyl-biphenyl-3-yloxy)-hexyl]-phenoxy}-butyric acid]
2 | CC(=O)c1cc(OCCCCCCc2cccc(OCCCC(=O)O)c2CCC(=O)O)cc(-c2ccsc2)c1 [Example 68, 4-[3-[6-(3-Acetyl-5-thiophen-3-yl-phenoxy)-hexyl]-2-(2-carboxy-ethyl)-phenoxy]-butyric acid]
0.32 | CCOc1cc(OCCCCCCc2cccc(OCCCC(=O)O)c2CCC(=O)O)cc(-c2ccc3scnc3c2)c1 [Example 56, 4-[3-{6-[3-Benzothiazol-5-yl-5-ethoxy-phenoxy]-hexyl}-2-(2-carboxy-ethyl)-phenoxy]-butyric acid]
0.4 | CCOc1cc(OCCCCCCc2cccc(OCCCC(=O)O)c2CCC(=O)O)cc(-c2ccsc2)c1 [Example 45, 4-[2-(2-Carboxy-ethyl)-3-[6-(3-ethoxy-5-thiophen-3-yl-phenoxy)-hexyl]-phenoxy]-butyric acid]
2.52 | COCc1cc(OCCCCCCc2cccc(OCCCC(=O)O)c2CCC(=O)O)cc(-c2ccc(F)cc2)c1 [Example 10, 4-{2-(2-Carboxy-ethyl)-3-[6-(4′-fluoro-5-methoxymethyl-biphenyl-3-yloxy)-hexyl]-phenoxy}-butyric acid]
